According to ChEMBL document CHEMBL1154412, “In vitro activity of telavancin against gram-positive clinical isolates recently obtained in Europe” (Antimicrob Agents Chemother, 2007):
Converted amounts (≈) assume the structure as drawn.

Tests used:
Staphylococcus aureus [1] = experiment: Antimicrobial activity against methicillin-susceptible Staphylococcus aureus after 20 to 24 hrs by broth microdilution method; type: functional
Staphylococcus aureus [2] = experiment: Antimicrobial activity against methicillin-resistant Staphylococcus aureus after 20 to 24 hrs by broth microdilution method; type: functional
Staphylococcus [3] = experiment: Antimicrobial activity against methicillin-susceptible coagulase-negative Staphylococcus after 20 to 24 hrs by broth microdilution method; type: functional
Staphylococcus [4] = experiment: Antimicrobial activity against methicillin-resistant coagulase-negative Staphylococcus after 20 to 24 hrs by broth microdilution method; type: functional
Enterococcus faecalis [5] = experiment: Antimicrobial activity against vancomycin-susceptible Enterococcus faecalis after 20 to 24 hrs by broth microdilution method; type: functional
Enterococcus faecalis [6] = experiment: Antimicrobial activity against vancomycin-resistant Enterococcus faecalis after 20 to 24 hrs by broth microdilution method; type: functional
Enterococcus faecium [7] = experiment: Antibacterial activity against vancomycin-susceptible Enterococcus faecium after 20 to 24 hrs by broth microdilution method; type: functional
Enterococcus faecium [8] = experiment: Antibacterial activity against vancomycin-resistant Enterococcus faecium after 20 to 24 hrs by broth microdilution method; type: functional
Streptococcus pneumoniae [9] = experiment: Antibacterial activity against penicillin-susceptible Streptococcus pneumoniae after 20 to 24 hrs by broth microdilution method; type: functional
Streptococcus pneumoniae [10] = experiment: Antibacterial activity against penicillin-intermediate Streptococcus pneumoniae after 20 to 24 hrs by broth microdilution method; type: functional
Streptococcus pneumoniae [11] = experiment: Antibacterial activity against penicillin-resistant Streptococcus pneumoniae after 20 to 24 hrs by broth microdilution method; type: functional
[12] = system: Streptococcus sp. 'group A'; experiment: Antimicrobial activity against Streptococcus group A after 20 to 24 hrs by broth microdilution method; type: functional
[13] = system: Streptococcus sp. 'group B'; experiment: Antimicrobial activity against Streptococcus group B after 20 to 24 hrs by broth microdilution method; type: functional
Streptococcus viridans = experiment: Antimicrobial activity against Streptococcus viridans after 20 to 24 hrs by broth microdilution method; type: functional
Homo sapiens = experiment: Plasma concentration in human at 7.5 mg/kg; type: ADME, organism-based; parameters: dose 7.5 mg/kg; conditions: in vivo
[14] = Protein binding in human plasma; type: ADME, cell-free; conditions: read-out: PB (converted)

Structure (SMILES) | MIC50 (Staphylococcus aureus [1]) | MIC90 (Staphylococcus aureus [1]) | MIC50 (Staphylococcus aureus [2]) | MIC90 (Staphylococcus aureus [2]) | MIC50 (Staphylococcus [3]) | MIC90 (Staphylococcus [3]) | MIC50 (Staphylococcus [4]) | MIC90 (Staphylococcus [4]) | MIC50 (Enterococcus faecalis [5]) | MIC90 (Enterococcus faecalis [5]) | MIC50 (Enterococcus faecalis [6]) | MIC90 (Enterococcus faecalis [6]) | MIC50 (Enterococcus faecium [7]) | MIC90 (Enterococcus faecium [7]) | MIC50 (Enterococcus faecium [8]) | MIC90 (Enterococcus faecium [8]) | MIC50 (Streptococcus pneumoniae [9]) | MIC90 (Streptococcus pneumoniae [9]) | MIC50 (Streptococcus pneumoniae [10]) | MIC90 (Streptococcus pneumoniae [10]) | other results
CN[C@H](CC(C)C)C(=O)N[C@H]1C(=O)N[C@@H](CC(N)=O)C(=O)N[C@H]2C(=O)N[C@H]3C(=O)N[C@H](C(=O)N[C@H](C(=O)O)c4cc(O)cc(O)c4-c4cc3ccc4O)[C@H](O)c3ccc(c(Cl)c3)Oc3cc2cc(c3O[C@@H]2O[C@H](CO)[C@@H](O)[C@H](O)[C@H]2O[C@H]2C[C@](C)(N)[C@H](O)[C@H](C)O2)Oc2ccc(cc2Cl)[C@H]1O [VANCOMYCIN] | 0.5 µg/mL (≈ 0.345 µM) | 1 µg/mL (≈ 0.69 µM) | 1 µg/mL (≈ 0.69 µM) | 1 µg/mL (≈ 0.69 µM) | 1 µg/mL (≈ 0.69 µM) | 2 µg/mL (≈ 1.38 µM) | 1 µg/mL (≈ 0.69 µM) | 2 µg/mL (≈ 1.38 µM) | 2 µg/mL (≈ 1.38 µM) | 2 µg/mL (≈ 1.38 µM) | 512 µg/mL (≈ 353 µM) | > 512 µg/mL | 1 µg/mL (≈ 0.69 µM) | 1 µg/mL (≈ 0.69 µM) | 512 µg/mL (≈ 353 µM) | 512 µg/mL (≈ 353 µM) | 0.25 µg/mL (≈ 0.173 µM) | 0.5 µg/mL (≈ 0.345 µM) | 0.25 µg/mL (≈ 0.173 µM) | 0.5 µg/mL (≈ 0.345 µM) | MIC (Streptococcus pneumoniae [9]): 0.25 µg/mL (≈ 0.173 µM); MIC (Streptococcus pneumoniae [10]): 0.25 µg/mL (≈ 0.173 µM); MIC (Streptococcus pneumoniae [11]): 0.25 µg/mL (≈ 0.173 µM); MIC50 (Streptococcus pneumoniae [11]): 0.25 µg/mL (≈ 0.173 µM); MIC90 (Streptococcus pneumoniae [11]): 0.5 µg/mL (≈ 0.345 µM); MIC [12]: 0.25 µg/mL (≈ 0.173 µM); MIC50 [12]: 0.25 µg/mL (≈ 0.173 µM); MIC90 [12]: 0.5 µg/mL (≈ 0.345 µM); MIC50 [13]: 0.5 µg/mL (≈ 0.345 µM); MIC90 [13]: 0.5 µg/mL (≈ 0.345 µM); MIC50 (Streptococcus viridans): 0.5 µg/mL (≈ 0.345 µM); MIC90 (Streptococcus viridans): 1 µg/mL (≈ 0.69 µM)
CCCCCCCCCC(=O)N[C@@H](Cc1c[nH]c2ccccc12)C(=O)N[C@H](CC(N)=O)C(=O)N[C@@H](CC(=O)O)C(=O)N[C@@H]1C(=O)NCC(=O)N[C@@H](CCCN)C(=O)N[C@@H](CC(=O)O)C(=O)N[C@H](C)C(=O)N[C@@H](CC(=O)O)C(=O)NCC(=O)N[C@H](CO)C(=O)N[C@@H]([C@H](C)CC(=O)O)C(=O)N[C@@H](CC(=O)c2ccccc2N)C(=O)O[C@@H]1C | 0.25 µg/mL (≈ 0.154 µM) | 0.5 µg/mL (≈ 0.309 µM) | 0.5 µg/mL (≈ 0.309 µM) | 0.5 µg/mL (≈ 0.309 µM) | 0.5 µg/mL (≈ 0.309 µM) | 1 µg/mL (≈ 0.617 µM) | 0.5 µg/mL (≈ 0.309 µM) | 0.5 µg/mL (≈ 0.309 µM) | 1 µg/mL (≈ 0.617 µM) | 2 µg/mL (≈ 1.23 µM) | 0.5 µg/mL (≈ 0.309 µM) | 2 µg/mL (≈ 1.23 µM) | 2 µg/mL (≈ 1.23 µM) | 4 µg/mL (≈ 2.47 µM) | 2 µg/mL (≈ 1.23 µM) | 2 µg/mL (≈ 1.23 µM) | 0.12 µg/mL (≈ 0.074 µM) | 0.25 µg/mL (≈ 0.154 µM) | 0.12 µg/mL (≈ 0.074 µM) | 0.25 µg/mL (≈ 0.154 µM) | MIC (Enterococcus faecalis [6]): 0.5 µg/mL (≈ 0.309 µM); MIC50 (Streptococcus pneumoniae [11]): 0.12 µg/mL (≈ 0.074 µM); MIC90 (Streptococcus pneumoniae [11]): 0.12 µg/mL (≈ 0.074 µM); MIC50 [12]: 0.06 µg/mL (≈ 0.037 µM); MIC90 [12]: 0.06 µg/mL (≈ 0.037 µM); MIC50 [13]: 0.25 µg/mL (≈ 0.154 µM); MIC90 [13]: 0.25 µg/mL (≈ 0.154 µM); MIC50 (Streptococcus viridans): 0.5 µg/mL (≈ 0.309 µM); MIC90 (Streptococcus viridans): 1 µg/mL (≈ 0.617 µM)
CCCCCCCCCCNCCN[C@@]1(C)C[C@H](O[C@H]2[C@H](Oc3c4cc5cc3Oc3ccc(cc3Cl)[C@@H](O)[C@@H](NC(=O)[C@@H](CC(C)C)NC)C(=O)N[C@@H](CC(N)=O)C(=O)N[C@H]5C(=O)N[C@H]3C(=O)N[C@H](C(=O)N[C@H](C(=O)O)c5cc(O)c(CNCP(=O)(O)O)c(O)c5-c5cc3ccc5O)[C@H](O)c3ccc(c(Cl)c3)O4)O[C@H](CO)[C@@H](O)[C@@H]2O)O[C@@H](C)[C@H]1O [TELAVANCIN] | 0.25 µg/mL (≈ 0.142 µM) | 0.25 µg/mL (≈ 0.142 µM) | 0.25 µg/mL (≈ 0.142 µM) | 0.25 µg/mL (≈ 0.142 µM) | 0.25 µg/mL (≈ 0.142 µM) | 0.25 µg/mL (≈ 0.142 µM) | 0.25 µg/mL (≈ 0.142 µM) | 0.25 µg/mL (≈ 0.142 µM) | 0.25 µg/mL (≈ 0.142 µM) | 0.5 µg/mL (≈ 0.285 µM) | 4 µg/mL (≈ 2.28 µM) | 8 µg/mL (≈ 4.56 µM) | 0.12 µg/mL (≈ 0.0684 µM) | 0.25 µg/mL (≈ 0.142 µM) | 1 µg/mL (≈ 0.57 µM) | 2 µg/mL (≈ 1.14 µM) | 0.015 µg/mL (≈ 0.00854 µM) | 0.03 µg/mL (≈ 0.0171 µM) | 0.015 µg/mL (≈ 0.00854 µM) | 0.03 µg/mL (≈ 0.0171 µM) | MIC (Streptococcus pneumoniae [11]): 0.015 µg/mL (≈ 0.00854 µM); MIC50 (Streptococcus pneumoniae [11]): 0.015 µg/mL (≈ 0.00854 µM); MIC90 (Streptococcus pneumoniae [11]): 0.03 µg/mL (≈ 0.0171 µM); MIC [12]: 0.03 µg/mL (≈ 0.0171 µM); MIC50 [12]: 0.03 µg/mL (≈ 0.0171 µM); MIC90 [12]: 0.06 µg/mL (≈ 0.0342 µM); MIC50 [13]: 0.06 µg/mL (≈ 0.0342 µM); MIC90 [13]: 0.06 µg/mL (≈ 0.0342 µM); MIC50 (Streptococcus viridans): 0.06 µg/mL (≈ 0.0342 µM); MIC90 (Streptococcus viridans): 0.06 µg/mL (≈ 0.0342 µM); Cp (Homo sapiens): 96.7 µg/mL; fraction unbound [14]: 0.1
